Measurements as given in the supplement of paper PMC11061612.

What was measured:
Experiment in all cases: Bliss excess, mean over the matrix (fraction); higher = more synergy
[1] = tested on: Ramos-2G6-4C10 (Burkitt's Lymphoma)
Outline: (§1)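 After 24 hours at 37°C and 5% CO2 in 1536-well plates, cells in DMEM/F12 or RPMI plus 10% FBS received two-drug dose matrices for 72 hours. Viability came from CellTiter-Glo 2.0 luminescence and was scaled as inhibition, anchored at 0 by vehicle wells and at 1 by blank wells. Combination Emax is taken as the second-highest inhibition in the matrix, and Bliss excess as the observed combination effect less EA + EB − EA·EB, with EA and EB the single-agent effects.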

[2] = tested on: SNU-5 (Gastric Carcinoma)
Outline: as §1

[3] = tested on: KYSE-520 (Esophageal Squamous Cell Carcinoma)
Outline: as §1

[4] = tested on: HuP-T4 (Pancreatic Carcinoma)
Outline: as §1

[5] = tested on: Daoy (Other Solid Carcinomas)
Outline: as §1

[6] = tested on: HO-1-N-1 (Oral Cavity Carcinoma)
Outline: as §1

[7] = tested on: MDA-MB-361 (Breast Carcinoma)
Outline: as §1

[8] = tested on: MFE-296 (Endometrial Carcinoma)
Outline: as §1

[9] = tested on: NOS-1 (Osteosarcoma)
Outline: as §1

[10] = tested on: 42-MG-BA (Glioblastoma)
Outline: as §1

[11] = tested on: Hs-578-T (Breast Carcinoma)
Outline: as §1

[12] = tested on: T98G (Glioblastoma)
Outline: as §1

Row | SMILES | Bliss excess [1] | Bliss excess [2] | Bliss excess [3] | Bliss excess [4] | Bliss excess [5] | Bliss excess [6] | Bliss excess [7] | Bliss excess [8] | Bliss excess [9] | Bliss excess [10] | Bliss excess [11] | Bliss excess [12]
1 | CC1(C)CCC(CN2CCN(c3ccc(C(=O)NS(=O)(=O)c4ccc(NCC5CCOCC5)c([N+](=O)[O-])c4)c(Oc4cnc5[nH]ccc5c4)c3)CC2)=C(c2ccc(Cl)cc2)C1 [Venetoclax] + C[C@@H](Nc1cc(F)cc(F)c1)c1cc(C(=O)N(C)C)cc2c(=O)cc(N3CCOCC3)oc12 [AZD8186] (first compound max 1 µM, 7x7, partner max 3 µM) | 0.0107 | 0.0236 | -0.06 | 0.0033 | -0.0073 | -0.009 | -0.0151 | -0.0248 | 0.018 | -0.0591 | -0.0314 | -0.0064
2 | COc1cccc(OCCCN)c1-c1cc(Nc2cnc(C#N)cn2)n[nH]1 [Prexasertib] + C[C@@H]1COCCN1C2=NC(=NC(=C2)C3(CC3)[S@](=N)(=O)C)C4=C5C=CNC5=NC=C4 [AZD6738] (first compound max 1 µM, 7x7, partner max 10 µM) | -0.0191 | -0.0371 | -0.0696 | -0.0504 | 0.0032 | 0.0115 | -0.018 | -0.0456 | 0.0721 | -0.0994 | -0.0779 | 0.0453
3 | Cc1c2c(nn1C)CSCc1cc(n(C)n1)CSc1cc(c3ccccc3c1)OCCCc1c(C(=O)O)n(C)c3c-2c(Cl)ccc13 [AZD5991] + Cc1cc2ncnn2cc1Nc1ncc2c(n1)n(C1CCOCC1)c(=O)n2C [AZD7648] (first compound max 1 µM, 7x7, partner max 10 µM) | 0.0227 | 0.0269 | -0.0595 | -0.0562 | -0.0069 | -0.0039 | -0.0344 | -0.0101 | 0.0112 | -0.0299 | -0.0058 | -0.0663
4 | C[C@@H](c1ccc2nccn2c1)n1nnc2ncc(-c3cnn(C)c3)nc21 [Savolitinib] + CC1(C)CCC(CN2CCN(c3ccc(C(=O)NS(=O)(=O)c4ccc(NCC5CCOCC5)c([N+](=O)[O-])c4)c(Oc4cnc5[nH]ccc5c4)c3)CC2)=C(c2ccc(Cl)cc2)C1 [Venetoclax] (first compound max 1 µM, 7x7, partner max 1 µM) | -0.0183 | -0.0585 | -0.0774 | -0.0575 | -0.0185 | -0.0105 | -0.0349 | -0.0427 | -0.05 | -0.04 | -0.0363 | -0.0064
5 | NC1(C(=O)N[C@@H](CCO)c2ccc(Cl)cc2)CCN(c2ncnc3[nH]ccc23)CC1 [Capivasertib] + Cn1cnc2c(F)c(Nc3ccc(Br)cc3Cl)c(C(=O)NOCCO)cc21 [Selumetinib] (first compound max 10 µM, 7x7, partner max 10 µM) | -0.0166 | 0.0345 | -0.042 | 0.028 | 0.0225 | 0.105 | 0.0297 | -0.0133 | -0.019 | 0.0697 | -0.0194 | 0.0241
6 | CN(CCO)CC[C@H](CSc1ccccc1)Nc1ccc(S(=O)(=O)NC(=O)c2ccc(N3CCC([C@@H](O)c4ccccc4-c4ccc(Cl)cc4)CC3)cc2)cc1S(=O)(=O)C(F)(F)F [AZD4320] + CN(C)CCCOc1ccc(-c2ccc3ncc4c(c3c2)n(C2CCOCC2)c(=O)n4C)cn1 [AZD0156] (first compound max 1 µM, 7x7, partner max 1 µM) | 0.026 | 0.0286 | -0.051 | -0.0268 | 0.0118 | -0.0011 | -0.0589 | -0.0346 | 0.0203 | -0.0225 | -0.0178 | -0.044
7 | CN(CCO)CC[C@H](CSc1ccccc1)Nc1ccc(S(=O)(=O)NC(=O)c2ccc(N3CCC([C@@H](O)c4ccccc4-c4ccc(Cl)cc4)CC3)cc2)cc1S(=O)(=O)C(F)(F)F [AZD4320] + CCN(CCO)CCCOc1ccc2c(Nc3cc(CC(=O)Nc4cccc(F)c4)[nH]n3)ncnc2c1 [AZD2811] (first compound max 1 µM, 7x7, partner max 1 µM) | 0.18 | -0.0115 | -0.0505 | -0.0427 | 0.0245 | -0.0255 | 0.122 | -0.0109 | 0.0616 | 0.15 | 0.183 | 0.0346
8 | CCN(CCO)CCCOc1ccc2c(Nc3cc(CC(=O)Nc4cccc(F)c4)[nH]n3)ncnc2c1 [AZD2811] + C=CCn1c(=O)c2cnc(Nc3ccc(N4CCN(C)CC4)cc3)nc2n1-c1cccc(C(C)(C)O)n1 [AZD1775] (first compound max 1 µM, partner max 1 µM) | 0.0096 | -0.0294 | -0.0048 | 0.0274 | 0.026 | -0.0785 | -0.0044 | -0.0245 | 0.0045 | 0.081 | -0.0212 | -0.0167
9 | Cc1c2c(nn1C)CSCc1cc(n(C)n1)CSc1cc(c3ccccc3c1)OCCCc1c(C(=O)O)n(C)c3c-2c(Cl)ccc13 [AZD5991] + Cn1cnc2c(F)c(Nc3ccc(Br)cc3Cl)c(C(=O)NOCCO)cc21 [Selumetinib] (first compound max 1 µM, 7x7, partner max 3 µM) | -0.0074 | 0.0262 | -0.0208 | 0.113 | 0.02 | 0.0303 | -0.0168 | 0.0234 | 0.0887 | -0.03 | -0.0568 | 0.0157
10 | Cc1c2c(nn1C)CSCc1cc(n(C)n1)CSc1cc(c3ccccc3c1)OCCCc1c(C(=O)O)n(C)c3c-2c(Cl)ccc13 [AZD5991] + CCN(CCO)CCCOc1ccc2c(Nc3cc(CC(=O)Nc4cccc(F)c4)[nH]n3)ncnc2c1 [AZD2811] (first compound max 1 µM, 7x7, partner max 1 µM) | 0.141 | 0.0306 | -0.0272 | -0.0024 | 0.0678 | 0.0237 | 0.0399 | 0.0533 | -0.0222 | 0.0282 | 0.0487 | -0.0339
11 | CC1(C)CCC(CN2CCN(c3ccc(C(=O)NS(=O)(=O)c4ccc(NCC5CCOCC5)c([N+](=O)[O-])c4)c(Oc4cnc5[nH]ccc5c4)c3)CC2)=C(c2ccc(Cl)cc2)C1 [Venetoclax] + COc1cc(Nc2ncc3c(n2)-c2ccc(Cl)cc2C(c2c(F)cccc2OC)=NC3)ccc1C(=O)O [Alisertib] (first compound max 1 µM, 7x7, partner max 10 µM) | 0.0209 | -0.0218 | -0.0489 | 0.0336 | 0.105 | -0.0846 | 0.147 | -0.0285 | -0.0231 | 0.0468 | 0.107 | -0.0205
12 | C=CCn1c(=O)c2cnc(Nc3ccc(N4CCN(C)CC4)cc3)nc2n1-c1cccc(C(C)(C)O)n1 [AZD1775] + O=C(c1cc(Cc2n[nH]c(=O)c3ccccc23)ccc1F)N1CCN(C(=O)C2CC2)CC1 [Olaparib] (first compound max 1 µM, partner max 10 µM) | -0.0238 | -0.0833 | -0.0301 | 0.0075 | 0.044 | 0.0217 | -0.0357 | -0.0218 | 0.0285 | 0.0093 | -0.0965 | -0.113
13 | Cc1c2c(nn1C)CSCc1cc(n(C)n1)CSc1cc(c3ccccc3c1)OCCCc1c(C(=O)O)n(C)c3c-2c(Cl)ccc13 [AZD5991] + C1CN(CCC1(C(=O)N[C@@H](CCO)C2=CC=C(C=C2)Cl)N)C3=NC=NC4=C3C=CN4 [Capivasertib] (first compound max 1 µM, 7x7, partner max 3 µM) | 0.0094 | 0.0135 | -0.0068 | 0.0085 | 0.0248 | 0.0001 | 0.0211 | 0.094 | 0.0511 | -0.0442 | -0.0866 | -0.0178
14 | CC(=O)Nc1cccc(-n2c(=O)n(C3CC3)c(=O)c3c(Nc4ccc(I)cc4F)n(C)c(=O)c(C)c32)c1 [Trametinib] + Cc1nc(-c2cn3c(n2)-c2ccc(-c4cnn(C(C)(C)C(N)=O)c4)cc2OCC3)n(C(C)C)n1 [Taselisib] (first compound max 1 µM, 7x7, partner max 10 µM) | -0.0053 | 0.141 | 0.0534 | 0.241 | 0.0146 | 0.268 | 0.0263 | 0.0323 | 0.191 | 0.0593 | 0.0773 | 0.0822
15 | Cn1cnc2c(F)c(Nc3ccc(Br)cc3Cl)c(C(=O)NOCCO)cc21 [Selumetinib] + CC(C)n1c(=O)n(C)c2cnc3cc(F)c(-c4ccc(OCCCN5CCCCC5)nc4)cc3c21 [AZD1390] (first compound max 10 µM, 7x7, partner max 0.3 µM) | -0.0211 | 0.0649 | -0.0115 | -0.0086 | -0.021 | 0.0053 | -0.044 | -0.0529 | 0.0117 | -0.0321 | -0.0426 | -0.0125
16 | Cn1cnc2c(F)c(Nc3ccc(Br)cc3Cl)c(C(=O)NOCCO)cc21 [Selumetinib] + CCN(CCO)CCCOc1ccc2c(Nc3cc(CC(=O)Nc4cccc(F)c4)[nH]n3)ncnc2c1 [AZD2811] (first compound max 10 µM, 7x7, partner max 1 µM) | -0.0321 | 0.0274 | 0.0547 | -0.0161 | 0.012 | -0.0692 | -0.004 | -0.0309 | -0.0092 | -0.0458 | 0.0203 | -0.0104
17 | COc1nnc2ccc(N3CCC(c4ccc(OCCN5CCN(C)C(=O)[C@H]5C)cc4)CC3)nn12 [AZD5153] + Cn1cnc2c(F)c(Nc3ccc(Br)cc3Cl)c(C(=O)NOCCO)cc21 [Selumetinib] (first compound max 1 µM, 7x7, partner max 10 µM) | -0.0465 | -0.0254 | 0.0018 | 0.0621 | -0.0253 | 0.0226 | 0.0073 | -0.0519 | 0.066 | -0.0245 | -0.0344 | 0.0403
18 | CC1(C)CCC(CN2CCN(c3ccc(C(=O)NS(=O)(=O)c4ccc(NCC5CCOCC5)c([N+](=O)[O-])c4)c(Oc4cnc5[nH]ccc5c4)c3)CC2)=C(c2ccc(Cl)cc2)C1 [Venetoclax] + CCN(CCO)CCCOc1ccc2c(Nc3cc(CC(=O)Nc4cccc(F)c4)[nH]n3)ncnc2c1 [AZD2811] (first compound max 1 µM, 7x7, partner max 1 µM) | 0.0321 | -0.0426 | -0.0294 | -0.0061 | -0.0311 | -0.032 | 0.0884 | -0.013 | -0.0156 | 0.0019 | -0.0451 | -0.0169
